Values joined by “and” are separate entries in the source; they are usually repeats but may differ in a detail not shown here. Equal values may be shown once. “Also recorded” adds a separate entry of the source.
Experiments:
Blood concentration test = type: in vivo; conditions: beagle dog fasted overnight, oral, DFNa 6 mg/kg body weight
gastric mucosa = experiment: Gastric mucosa stimulus test
Method: (§1) Gastric mucosa stimulus test for the S/O type complex suspension obtained in Production example 1 was carried out. Specifically, according to the method disclosed by Tsurumi et al. (Folia Pharmacol. Japan, 69, pp.319-334 (1973)), five male Wistar rats having an average body weight of 140 g were fasted for 18 hours in advance, and were administered so that the dose amount of DFNa was 50 mg/kg body weight by means of an intrastomach catheter for rat. After 3.5 hours, the rats were sacrificed and dissected, and the condition of the gastric mucosa was observed. Also blood collected after 3.5 hours was centrifuged to obtain a plasma sample, and DFNa concentration in the plasma was determined by HPLC.

[1] = Plasma DFNa concentration in the gastric mucosa stimulus test; type: in vivo, male Wistar rats; conditions: DFNa 50 mg/kg body weight by intrastomach catheter, blood after 3.5 hours
Method: as §1

## O=C(O)Cc1ccccc1Nc1c(Cl)cccc1Cl [DFNa solution, diclofenac sodium]
Blood concentration test
  Area under medicine concentration curve: 62800 ng·h/mL
  Maximum blood concentration: 26.4 µg/mL
  Maximum blood concentration reach time: 1 h
Blood concentration test; serum
  half-life: 58.8 min
Gastric mucosa; individual rat, DFNa 50 mg/kg body weight by intrastomach catheter, observed after 3.5 hours
  Condition of gastric mucosa: Dotted bleeding; also recorded: Gastric ulcer
Gastric mucosa; rat, DFNa 50 mg/kg body weight
  abnormality in gastric mucosa: clear abnormality is observed
[1]; group average, rat
  Plasma DFNa concentration, Average: 6.21 ± 2.03
[1]; individual rat
  Plasma DFNa concentration: 3.99 and 7.98 and 6.64

— patent US20070207138A1, “S/O Type Pharmaceutical Preparation and Method for Producing the Same” (ASPION CO., LTD., priority 2004, published 2007)
